This is an account of results in article PMC6934184, “Selective DNA-PKcs inhibition extends the therapeutic index of localized radiotherapy and chemotherapy” (The Journal of Clinical Investigation, 2019).

The assay deals with T1, DAPK2 (Homo sapiens, UniProt Q9UIK4).
T1 construct: purchased Thermo Fisher Scientific (Life Technologies) SelectScreen
In words: SelectScreen LanthaScreen. The format is binding. The following applies: read-out: % displacement. Summed up:
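NU5455 was profiled across the SelectScreen Broad panel of kinase activity and binding assays. Z'LYTE reactions such as CSF1R ran at apparent Km ATP, while the Adapta CAMK1 assay used ATP listed as 10. Values are given as percent.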
On the technique in general: Time-resolved FRET reads energy transfer from a long-lived donor to a nearby acceptor.

SMILES strings stand for the structures.

T1 sequence (Q9UIK4 whole entry): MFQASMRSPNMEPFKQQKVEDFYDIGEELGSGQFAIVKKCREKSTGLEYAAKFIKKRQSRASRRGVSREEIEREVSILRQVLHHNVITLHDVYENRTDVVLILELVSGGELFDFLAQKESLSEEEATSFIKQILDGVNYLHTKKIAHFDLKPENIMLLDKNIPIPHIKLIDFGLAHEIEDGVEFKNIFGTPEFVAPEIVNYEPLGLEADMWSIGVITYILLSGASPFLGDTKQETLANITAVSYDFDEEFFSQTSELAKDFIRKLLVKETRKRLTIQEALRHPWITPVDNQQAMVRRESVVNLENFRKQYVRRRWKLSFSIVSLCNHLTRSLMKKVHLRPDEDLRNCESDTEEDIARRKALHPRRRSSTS

For `CN(C(=O)CN1CCOCC1)c1ccc2sc3c(-c4cccc5c(=O)cc(N6CC7CCC(C6)O7)oc45)cccc3c2c1` [NU5455], the inhibition at 1 µM was 2.9%.
